Test systems include MOLT-4 leukemia; NCI-H23 lung; COLO 205 colon; SK-OV-3 ovarian; OVCAR-8 ovarian; T-47D breast; SNB-19 CNS; UACC-257 melanoma; SW-620 colon; OVCAR-5 ovarian; BT-549 breast; DU-145 prostate; NCI/ADR-RES ovarian; RPMI-8226 leukemia; MALME-3M melanoma; NCI-H522 lung; 786-0 renal; SF-295 CNS; HOP-92 NSCLC.
Holding throughout (experiment): NCI-60 cell line screen, 48 h

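Five compound concentrations were applied to cells in 96-well plates for 48 hours; endpoints were derived by simple linear interpolation of the resulting dose-response curve. TGI is the concentration that stops growth completely.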

Regarding `CSc1c(C#N)c(S)n(-c2ccc(Cl)cc2)c(=O)c1C#N`, the TGI in the test with MOLT-4 leukemia, in the test with NCI-H23 lung, with COLO 205 colon, in the test with SK-OV-3 ovarian, in the test with OVCAR-8 ovarian and in the test with T-47D breast was more than 100 µM in each case. The TGI with SNB-19 CNS, with UACC-257 melanoma, in the test with SW-620 colon, in the test with OVCAR-5 ovarian, in the test with BT-549 breast and with DU-145 prostate was more than 100 µM each time. Also, the TGI with NCI/ADR-RES ovarian, with RPMI-8226 leukemia, with MALME-3M melanoma, with NCI-H522 lung and in the test with 786-0 renal was more than 100 µM in each case.

In the case of `N#Cc1c(-c2ccccc2)cc(-c2ccccc2)n(C2OCC(O)C(O)C2O)c1=S` (configuration not stated), the TGI in the test with MOLT-4 leukemia is more than 100 µM; with NCI-H23 lung it was 46.4 µM; with SF-295 CNS it was 39 µM; in the test with COLO 205 colon it was 56.9 µM; with SK-OV-3 ovarian, 27.3 µM; in the test on OVCAR-8 ovarian it was 43.7 µM. Moreover, the TGI with T-47D breast was determined as 26.6 µM; in the test on SNB-19 CNS it was 89.7 µM; in the test on UACC-257 melanoma, 75.4 µM; with SW-620 colon it was 33.5 µM; in the test with OVCAR-5 ovarian it was 58.5 µM; with BT-549 breast, 44 µM. For the same compound, the TGI in the test on DU-145 prostate is 49.3 µM; in the test on NCI/ADR-RES ovarian it was 86.5 µM; with RPMI-8226 leukemia, 34.7 µM; in the test on MALME-3M melanoma, 81 µM; in the test with NCI-H522 lung it was 37.9 µM; with 786-0 renal it was 49.1 µM.

With `CN(CCNC(=S)c1cn(C)c2c1ccc1ccccc12)CCNC(=S)c1cn(C)c2c1ccc1ccccc12`, the TGI in the test with MOLT-4 leukemia, in the test with NCI-H23 lung, in the test with SF-295 CNS, in the test with COLO 205 colon, with SK-OV-3 ovarian and in the test on OVCAR-8 ovarian was more than 100 µM each time. Also, the TGI is 28.6 µM with T-47D breast; more than 100 µM in the test with SNB-19 CNS; more than 100 µM with UACC-257 melanoma; more than 100 µM in the test on SW-620 colon; more than 100 µM with OVCAR-5 ovarian; more than 100 µM in the test on BT-549 breast. In addition, the TGI in the test with DU-145 prostate, with NCI/ADR-RES ovarian, in the test with MALME-3M melanoma, in the test on NCI-H522 lung, in the test with HOP-92 NSCLC and with 786-0 renal was more than 100 µM in each case.

For `c1cc(CN2CCNCCNCCNCC2)cc(CN2CCNCCNCCNCC2)c1`, the TGI in the test on MOLT-4 leukemia, with NCI-H23 lung, with SF-295 CNS, with COLO 205 colon, with SK-OV-3 ovarian and in the test on OVCAR-8 ovarian was more than 100 µM in each case. The TGI with T-47D breast, in the test on SNB-19 CNS, in the test on UACC-257 melanoma, in the test with SW-620 colon, in the test on OVCAR-5 ovarian and in the test with BT-549 breast was more than 100 µM throughout. Further, the TGI with DU-145 prostate, in the test with NCI/ADR-RES ovarian, in the test with RPMI-8226 leukemia, with MALME-3M melanoma and with 786-0 renal was more than 100 µM in each case.

`Nc1c(Cl)cc(-c2nc3ccccc3s2)cc1Cl`: the TGI with MOLT-4 leukemia, in the test with SF-295 CNS, in the test with COLO 205 colon, in the test with SK-OV-3 ovarian, in the test with OVCAR-8 ovarian and in the test with T-47D breast was more than 100 µM throughout. For the same compound, the TGI in the test on SNB-19 CNS, with UACC-257 melanoma, in the test with SW-620 colon, in the test on BT-549 breast, with DU-145 prostate and in the test on NCI/ADR-RES ovarian was more than 100 µM throughout. Besides, the TGI in the test on MALME-3M melanoma, in the test with NCI-H522 lung, in the test on HOP-92 NSCLC and in the test on 786-0 renal was more than 100 µM throughout.

With `CN1CCC/C1=C1/C(=O)N(c2ccccc2)N=C1c1ccc[nH]1`, the TGI with MOLT-4 leukemia, with NCI-H23 lung, in the test with SF-295 CNS, in the test on COLO 205 colon, in the test on OVCAR-8 ovarian and in the test on T-47D breast was more than 100 µM throughout. Moreover, the TGI in the test with SNB-19 CNS, with UACC-257 melanoma, with SW-620 colon, with OVCAR-5 ovarian, with BT-549 breast and in the test on DU-145 prostate was more than 100 µM throughout. In addition, the TGI with NCI/ADR-RES ovarian, with RPMI-8226 leukemia, in the test on MALME-3M melanoma, in the test on NCI-H522 lung and with 786-0 renal was more than 100 µM throughout.

On to `COc1ccc(-n2c(C)nc3ccc(NC4OC(CO)C(O)C(O)C4O)cc3c2=O)cc1` (configuration not stated), for which the TGI with MOLT-4 leukemia, in the test with NCI-H23 lung, in the test with SF-295 CNS, in the test with COLO 205 colon, with OVCAR-8 ovarian and in the test on T-47D breast was more than 100 µM each time. The TGI with SNB-19 CNS, with UACC-257 melanoma, in the test on SW-620 colon, with OVCAR-5 ovarian, in the test on BT-549 breast and in the test with DU-145 prostate was more than 100 µM each time. Besides, the TGI with NCI/ADR-RES ovarian, with RPMI-8226 leukemia, in the test with MALME-3M melanoma, with NCI-H522 lung and with 786-0 renal was more than 100 µM in each case.

`CC(=O)O[C@@H]1[C@H]2[C@@H](OC(=O)c3ccccc3)[C@@H](C)C[C@]2(O)[C@H](OC(C)=O)[C@@]2(C)[C@@H]3C[C@@](C)(OC(C)=O)C[C@@H](OC(C)=O)[C@@]3(OC(C)=O)C[C@@]12C`: the TGI with MOLT-4 leukemia, in the test on NCI-H23 lung, with SF-295 CNS, with COLO 205 colon, with SK-OV-3 ovarian and in the test with OVCAR-8 ovarian was more than 10 µM in each case. The TGI in the test with T-47D breast, in the test with SNB-19 CNS, with UACC-257 melanoma, in the test on SW-620 colon, in the test on OVCAR-5 ovarian and with BT-549 breast was more than 10 µM throughout. Also, the TGI in the test on DU-145 prostate, in the test on NCI/ADR-RES ovarian, in the test with NCI-H522 lung, in the test on HOP-92 NSCLC and with 786-0 renal was more than 10 µM each time.

(Values after PubChem BioAssay (NCI).)
